Experimental data taken from patent US20240109890A1, “BRIDGED HETEROCYCLYL-SUBSTITUTED PYRIMIDINE COMPOUNDS, PREPARATION METHOD AND MEDICAL USE THEREOF” (THE NATIONAL INSTITUTES OF PHARMACEUTICAL R&D CO., LTD., priority 2021, published 2024).

Tests used:
[1] = molecular target: JAK1 kinase (Homo sapiens (Human), UniProt P23458); assay: In vitro inhibitory activity on JAK1 kinase (ADP-Glo Kinase Assay); assay type: biochemical; conditions: JAK1 4 nM, 1 mM ATP, IRS1 substrate
Protocol: Experimental materials: JAK1 kinase (Invitrogen, PV4744), ATP (Promega, V915B), ADP-Glo Kinase Assay (Promega, V9101), IRS1 (Signalchem, 140-58-1000). Sample preparation: The compounds of the present invention and the control product were dissolved in DMSO solvent respectively to formulate into 10 mM mother liquor. The final reaction maximum concentration of the compound was 10 μM, 3-fold dilution, 10 concentration gradients, and duplicate wells for each concentration gradient. Experimental process: 0.1 μL of the compound to be tested was transferred into a 384-well reaction plate (PE, 6007290) via Echo and centrifuged at 1000 rpm/min for 1 min. 5 μL of JAK1 kinase (final concentration of 4 nM) was transferred into the 384-well reaction plate, which was then centrifuged at 1000 rpm/min for 1 min, and incubated at 25° C. for 15 min. 5 μL of substrate mixture (1 mM ATP, IRS1 0.05 mg/ml, kinase buffer solution) was transferred into the 384-well reaction plate, which was then centrifuged at 1000 rpm/min for 1 min, and incubated at 25° C. for 60 min. 10 μL of ADP-Glo was transferred into the 384-well reaction plate, which was then centrifuged at 1000 rpm/min for 1 min, and incubated at 25° C. for 40 min. 20 μL of test solution was transferred into the 384-well reaction plate, which was then centrifuged at 1000 rpm/min for 1 min and incubated at 25° C. for 40 min. RLU (Relative luminescence unit) signal was read by using an Envision multifunctional plate reader. The signal intensity was used to characterize the degree of the kinase activity. […] IC50 value of 0-100 nM is shown as A, IC50 value of 100-300 nM is shown as B, IC50 value of 300-1000 nM is shown as C, and IC50 value which is greater than 1000 nM is shown as D. NT means not tested.

[2] = tested on: IFN-2α-stimulated TYK2/JAK1-mediated pathway; assay: Inhibition of STAT3 signaling pathway of human whole blood (IFN-2α induced pSTAT3, flow cytometry); assay type: cell-based; conditions: IFN-2α stimulation, CD3/pSTAT3 staining
Protocol: Sample preparation: The compounds of the present invention and the control were dissolved in DMSO solvent respectively to formulate into 10 mM mother liquor. The final reaction maximum concentration of the compound was 10 μM, 3-fold dilution, 10 concentration gradients, and duplicate wells for each concentration gradient.
Experimental process: 20 μL of the compound of the present invention was added to a flow cytometer tube (BD, 352052) containing 180 μL of anticoagulant sodium heparin. 20 μL of PBS was added to the control tube. The sample was incubated at 37° C. for 30 min. 2 μL of stimulating factor was added and then incubated at 37° C. for 20 min. 1 mL of erythrocyte lysate was added, and the sample was repeatedly inverted 5 to 10 times or vortexed and then incubated at 37° C. for 10 min. The sample was centrifuged at 600 g for 6 to 8 min. The supernatant was discarded. The mixture was vortexed until the precipitate was suspended. The cells were washed with 3 mL of PBS and centrifuged at 600 g for 6 to 8 min. The supernatant was discarded. The mixture was vortexed until the precipitate was suspended. 1 mL of membrane breaking solution was added, and the system was mixed gently, incubated on ice for 30 min, and centrifuged at 600 g for 6 to 8 min. The supernatant was discarded. The mixture was vortexed until the precipitate was suspended. The cells were washed. 3 mL of PBS was added. […]

[3] = Pharmacokinetic study in rats; assay type: in vivo, rat; conditions: for F / AUC(0-t) / Cmax / half-life: male SD rats, i.v. 1 mg/kg, p.o. 5 mg/kg; for AUC(0-t) / Cmax / half-life: rat, plasma, route of this value not stated; for pharmacokinetic properties (overall statement): rats
Protocol: Sample preparation: The compounds of Examples 1-a and 1-b were formulated into 0.2 mg/mL and 0.5 mg/mL solutions with 20% cyclodextrin.
Experimental method: Male SD rats (Beijing Vital River Laboratory Animal Technology Co., Ltd.) were used, the intravenous dose was 1 mg/kg (intravenously, i.v). Blood was collected from the canthus venous plexus before administration and at 0, 5 minutes, 15 minutes, 30 minutes, 1 hour, 2 hours, 4 hours, 6 hours and 8 hours after administration. The oral dose was 5 mg/kg (oral, p.o). Blood was collected from the canthus venous plexus before administration and at 15 minutes, 30 minutes, 1 hour, 2 hours, 4 hours, 6 hours and 8 hours after administration. The blood was anticoagulated with sodium heparin, centrifuged at 3500 rpm for 10 minutes at 4° C. The plasma was obtained and stored at −20° C. until testing.
50 μL of the plasma sample melted at room temperature was precisely measured and placed in a 1.5 mL EP tube, followed by adding 400 μL of verapamil internal standard working solution (China National Institute for Drug Control). The EP tube was vortexed vigorously for 1 minute, and centrifuged at 16000 rpm for 10 minutes. The supernatant was collected, filtered with a 0.22 μm organic membrane (AS081320-T, Agela Technologies), and added to an injection vial. The plasma concentration was obtained by LC/MS (Waters UPLC I Class/ TQ-S micro). The main pharmacokinetic parameters of compounds 1-a and 1-b in rats were obtained by DAS3.3.0 software.

[4] = tested on: AIA model; assay: AIA pharmacodynamic study in rats (complete Freund's adjuvant, arthritis scoring); assay type: in vivo, rat; conditions: female Lewis rats, arthritis score; for efficacy in the AIA model versus reference PF-06700841: low dose 1 mg/kg and high dose 3 mg/kg groups
Protocol: Experimental materials: Complete Freund's adjuvant (Chondrex, 7027); positive control compound PF-06700841, which has a structure of
Experimental process: The in vivo efficacy of the compounds of the present invention was investigated. 8-Week-old female Lewis rats (Beijing Vital River Laboratory Animal Technology Co., Ltd.) were subcutaneously injected with 0.1 mL of complete Freund's adjuvant at a single site on the base of their tails, and grouped 13 days after modeling. 8 groups were divided: the normal group, the model group, the PF-06700841 low dose group, the PF-06700841 high dose group, the compound 1-a low dose group, the compound 1-a high dose group, the compound 1-b low dose group, and the compound 1-b high dose group (the compounds to be tested were formulated into 0.1 mg/mL and 0.3 mg/mL solutions with 20% cyclodextrin solution). 20% cyclodextrin was administered to the model group, 1 mg/kg of the test compound was administered to the low dose group, and 3 mg/kg of the test compound was administered to the high dose group. The scores were evaluated every 2 days after administration. Scoring criteria: 0 point: no redness and swelling; 1 point: mild redness and swelling of ankle joints and wrist joints; 2 points: moderate redness and swelling of ankle joints and wrist joints; 3 points: severe redness and swelling of the paw including the fingertips; 4 points: maximal inflammation of the extremities, including multiple joints. The scoring results were analyzed by Graph prism9.0 software.
FIG. 1 is a graph showing the rat AIA pharmacodynamic scoring results of the compounds of the present invention.

JAK1 kinase, sequence (P23458 whole entry): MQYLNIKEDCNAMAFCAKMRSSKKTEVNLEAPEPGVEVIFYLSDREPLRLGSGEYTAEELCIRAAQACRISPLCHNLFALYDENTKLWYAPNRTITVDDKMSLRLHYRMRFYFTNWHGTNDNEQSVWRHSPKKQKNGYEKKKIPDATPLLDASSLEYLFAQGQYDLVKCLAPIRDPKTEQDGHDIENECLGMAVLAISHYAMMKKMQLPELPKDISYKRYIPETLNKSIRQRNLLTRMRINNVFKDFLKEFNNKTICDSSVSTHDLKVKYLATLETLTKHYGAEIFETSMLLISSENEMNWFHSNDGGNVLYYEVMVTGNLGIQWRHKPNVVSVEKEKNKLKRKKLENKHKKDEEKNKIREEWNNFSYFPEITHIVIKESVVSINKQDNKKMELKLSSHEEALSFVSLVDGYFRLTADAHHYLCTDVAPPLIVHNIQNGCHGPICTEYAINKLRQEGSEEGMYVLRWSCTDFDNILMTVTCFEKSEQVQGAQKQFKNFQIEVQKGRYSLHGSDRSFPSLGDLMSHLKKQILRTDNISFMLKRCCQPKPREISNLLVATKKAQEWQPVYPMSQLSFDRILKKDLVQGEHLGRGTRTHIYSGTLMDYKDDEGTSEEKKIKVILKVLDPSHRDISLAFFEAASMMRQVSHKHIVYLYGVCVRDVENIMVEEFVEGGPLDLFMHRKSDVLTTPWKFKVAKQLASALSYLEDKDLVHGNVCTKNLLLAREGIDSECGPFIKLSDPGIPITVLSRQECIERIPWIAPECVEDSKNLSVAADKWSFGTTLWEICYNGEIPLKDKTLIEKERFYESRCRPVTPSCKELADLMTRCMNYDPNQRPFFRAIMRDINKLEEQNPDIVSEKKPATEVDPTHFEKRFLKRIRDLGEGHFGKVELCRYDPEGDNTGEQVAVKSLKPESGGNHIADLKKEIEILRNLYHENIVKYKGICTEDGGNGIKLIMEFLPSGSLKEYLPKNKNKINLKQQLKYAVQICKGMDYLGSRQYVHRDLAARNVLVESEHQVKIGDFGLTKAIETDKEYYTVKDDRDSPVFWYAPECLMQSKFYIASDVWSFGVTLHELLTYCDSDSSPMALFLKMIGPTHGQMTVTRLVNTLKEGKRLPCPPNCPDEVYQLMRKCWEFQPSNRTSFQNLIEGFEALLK

Row | Structure (SMILES) | IC50 [1] [nM] | IC50 [2] [nM] | F [3] | AUC(0-t) [3] [ng·h/mL] | Cmax [3] [ng/mL] | half-life [3] [h] | pharmacokinetic properties (overall statement) [3] | efficacy in the AIA model versus reference PF-06700841 [4] | efficacy in the AIA model versus isomer 1-b ([4]; 1 mg/kg and 3 mg/kg)
1 | Cn1cc(Nc2nccc(C3=C[C@@H]4CC[C@H](C3)N4C(=O)[C@H]3C[C@@H]3F)n2)cn1 [Compound 2-a, ((1R,2S)-2-fluorocyclopropyl)((1S,5R)-3-(2-((1-methyl-1H-pyrazol-4-yl)amino)pyrimidin-4-yl)-8-azabicyclo[3.2.1]oct-2-en-8-yl)methanone] | 300 to 1000 |  |  |  |  |  |  |  | 
2 | Cn1cc(Nc2nccc(C3=C[C@H]4CC[C@@H](C3)N4C(=O)[C@H]3C[C@@H]3F)n2)cn1 [Compound 2-b, ((1R,2S)-2-fluorocyclopropyl)((1R,5S)-3-(2-((1-methyl-1H-pyrazol-4-yl)amino)pyrimidin-4-yl)-8-azabicyclo[3.2.1]oct-2-en-8-yl)methanone] | 100 to 300 |  |  |  |  |  |  |  | 
3 | Cn1cc(Nc2nccc(C3=CC4CCC(C3)N4C(=O)[C@@H]3C[C@H]3F)n2)cn1 (stereo partly drawn) [Compound 1, ((1S,2R)-2-fluorocyclopropyl)(3-(2-((1-methyl-1H-pyrazol-4-yl)amino)pyrimidin-4-yl)-8-azabicyclo[3.2.1]oct-2-en-8-yl)methanone] | < 100 |  |  |  |  |  |  |  | 
4 | Cn1cc(Nc2nccc(C3=C[C@H]4CC[C@@H](C3)N4C(=O)[C@@H]3C[C@H]3F)n2)cn1 [Compound 1-b, ((1S,2R)-2-fluorocyclopropyl)((1R,5S)-3-(2-((1-methyl-1H-pyrazol-4-yl)amino)pyrimidin-4-yl)-8-azabicyclo[3.2.1]oct-2-en-8-yl)methanone] | < 100 | < 100 | A (F>50% is shown as A) | 500 to 1000 | 300 to 500 | > 1 | good pharmacokinetic properties | significantly better than that of the reference PF-06700841 | 
5 | Cn1cc(Nc2nccc(C3=C[C@@H]4CC[C@H](C3)N4C(=O)[C@@H]3C[C@H]3F)n2)cn1 [Compound 1-a, ((1S,2R)-2-fluorocyclopropyl)((1S,5R)-3-(2-((1-methyl-1H-pyrazol-4-yl)amino)pyrimidin-4-yl)-8-azabicyclo[3.2.1]oct-2en-8-yl)methanone] | < 100 | < 100 | A (F>50% is shown as A) | > 1000 | > 500 | > 1 | good pharmacokinetic properties | significantly better than that of the reference PF-06700841 | significantly better than that of isomer 1-b
6 | Cn1cc(Nc2nccc(C3=CC4CCC(C3)N4C(=O)[C@H]3C[C@@H]3F)n2)cn1 (stereo partly drawn) [Compound 2, ((1R,2S)-2-fluorocyclopropyl)(3-(2-((1-methyl-1H-pyrazol-4-yl)amino)pyrimidin-4-yl)-8-azabicyclo[3.2.1]oct-2-en-8-yl)methanone] | 300 to 1000 |  |  |  |  |  |  |  | 
